Data published in US20190062277A1, “FARNESOID X RECEPTOR AGONISTS AND USES THEREOF” (Metacrine, Inc., priority 2015, published 2019).

Legend:
[1] = molecular target: T1, FXR (Homo sapiens, UniProt Q96RI1); assay: In Vitro FXR Assay (TK), luciferase reporter in transfected CV-1 cells; type: cell-based; parameters: expressed in transfected cells; host or cells: CV-1 cells; details: CV-1 cells transfected with hFXR, hRXR, TK-ECRE-luc; 18 hrs incubation; luminescence; maximum efficacy <25% of Fexaramine control also classified '+'
T1 sequence (Q96RI1 1-486): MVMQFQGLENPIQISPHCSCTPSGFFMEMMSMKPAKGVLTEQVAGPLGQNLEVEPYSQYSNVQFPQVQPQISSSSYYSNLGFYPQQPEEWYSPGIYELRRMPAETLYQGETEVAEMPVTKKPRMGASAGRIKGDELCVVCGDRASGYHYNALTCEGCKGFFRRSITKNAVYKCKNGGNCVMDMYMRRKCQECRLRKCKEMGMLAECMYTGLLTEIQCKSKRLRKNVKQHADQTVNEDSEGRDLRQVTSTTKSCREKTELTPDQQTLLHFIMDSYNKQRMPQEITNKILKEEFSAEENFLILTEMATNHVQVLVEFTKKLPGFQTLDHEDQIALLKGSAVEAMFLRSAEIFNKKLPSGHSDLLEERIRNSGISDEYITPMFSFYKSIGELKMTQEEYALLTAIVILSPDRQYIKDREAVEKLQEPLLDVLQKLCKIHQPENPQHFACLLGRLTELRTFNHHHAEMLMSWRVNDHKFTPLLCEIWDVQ
T1 sequence (P19793 1-462 partner): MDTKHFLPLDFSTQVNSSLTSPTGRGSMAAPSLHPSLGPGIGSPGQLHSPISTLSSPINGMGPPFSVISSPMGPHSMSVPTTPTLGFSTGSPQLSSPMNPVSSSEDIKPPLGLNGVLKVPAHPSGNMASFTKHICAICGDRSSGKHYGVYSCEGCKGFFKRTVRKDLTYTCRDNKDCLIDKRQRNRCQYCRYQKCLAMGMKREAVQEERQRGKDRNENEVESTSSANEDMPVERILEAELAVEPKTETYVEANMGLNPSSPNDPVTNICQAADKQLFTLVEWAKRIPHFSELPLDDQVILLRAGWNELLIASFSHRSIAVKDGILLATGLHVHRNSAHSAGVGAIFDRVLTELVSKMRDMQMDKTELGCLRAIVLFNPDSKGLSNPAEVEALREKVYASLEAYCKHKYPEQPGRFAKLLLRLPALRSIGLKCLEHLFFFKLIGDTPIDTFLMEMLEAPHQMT
Method: Example B-2: In Vitro FXR Assay (TK)
CV-1 cells were seeded at a density of 2,000,000 cells in a T175 flask with DMEM+10% charcoal double-stripped FBS and incubated at 37° C. in 5% CO2 for 18 h (0/N).
After 18 h of incubation, the medium in the T175 flask was changed with fresh DMEM+10% charcoal super-stripped serum. In a polypropylene tube, 2500 μL OptiMEM (Life Technologies, Cat #31985-062) was combined with expression plasmids for hFXR, hRXR, TK-ECRE-luc and pCMX-YFP. The tube was then briefly vortexed and incubated at room temperature for 5 minutes. Transfection reagent (X-tremeGENE HP from Roche, Cat #06 366 236 001) was added to the OptiMEM/plasmid mixture vortexed and incubated at room temperature for 20 minutes. Following incubation, the transfection reagent/DNA mixture complex was added to cells in the T175 flask and the cells were incubated at 37° C. in 5% CO2 for 18 h (O/N).
Compounds were serially diluted in DMSO and added to transfected CV-1 cells. The cells were then incubated for 18 hrs. The next day cells were lysed and examined for luminescence.

[2] = molecular target: T1, FXR; assay: In Vitro FXR Assay (PGL3), luciferase reporter in transfected CV-1 cells; type: cell-based; parameters: plasmids XPD90Gal pCMXhFXRfl, pCMXhRXRfl+PGL3-ECRE*6-luc+CMX-YFP; expressed in transfected cells; host or cells: CV-1 cells; details: CV-1 cells transfected with hFXR, hRXR, PGL3-ECRE*6-luc; 18 hrs incubation; luminescence
Method: Example B-1: In Vitro FXR Assay (PGL3)
CV-1 cells were seeded at a density of 2,000,000 cells in a T175 flask with DMEM+10% charcoal double-stripped FBS and incubated at 37° C. in a 5% CO2 for 18 h (0/N).
After 18 h of incubation, the medium in the T175 flask was changed with fresh DMEM+10% charcoal super-stripped serum.
To prepare the transfection reaction mixture, the transfection reagent (X-tremeGENE HP from Roche, Cat #06 366 236 001) was added in to a 1.5 mL microcentrifuge tube labelled “A” at a ratio of 1:3 (DNA in μg: transfection reagent in μL). OptiMEM medium (Life Technologies, Cat #31985-062) was added accordingly to provide a total volume of 1 mL. The transfection reaction mixture was then briefly vortexed and incubated at room temperature for 5 minutes.
In a separate 1.5 mL microcentrifuge tube labelled “B”, 100 μL OptiMEM and plasmids XPD90Gal pCMXhFXRfl, pCMXhRXRfl+PGL3-ECRE*6-luc+CMX-YFP in the ratio 2 μg: 2 μg:18 μg:3 μg were added. This microcentrifuge tube “B” was then briefly vortexed and incubated at room temperature for 5 minutes.
The total volume in tube labelled “A” was then transferred in to tube labelled “B.” The mixture was then briefly vortexed and the transfection:DNA complex was then incubated for about 15-20 minutes at room temperature.
Following incubation, the transfection reagent/DNA mixture complex was then added to cells in the T175 flask and the cells were incubated at […] (0/N) at 37° C. in 5% CO2.
In a 96 well plate, a half logarithmic serial dilution was prepared. OptiMEM was used as the diluent. Using any of one of the compounds described herein, a compound stock solution of 10 mM was prepared. An initial 1:100 dilution was made into the first well for a final concentration of 100 μM. The final concentrations in the 96-well plate was prepared by using a multichannel pipette to transfer 5 μL of the diluted compound to 384-well plate in quadruplicate.
Cells in T175 flask were trypsinized and cells were resuspending in 40 mL phenol red free DMEM+10% charcoal super-stripped FBS. Typically, one T175 flask was sufficient to seed two 384 well plates. CV-1 cells were seeded at 45 μL cell suspension/well using a multi-channel pipet or a 384 multidrop dispenser. The cells were then incubated for 18 hrs, overnight.
After removing the plates from the incubator, the medium was flicked out of plate and 384 well plate was turned upside down onto paper towel. The remaining medium was gently tapped out. 15 μL lysis buffer was then added to each well using a multichannel pipet or a 384 well multi-drop dispenser. After incubation for 10 minutes at room temperature on shaker, 30 μL Luciferase buffer was added to each well. Luminescence counts were taken immediately using the Perkin Elmer Envision.
The ability of the compounds disclosed herein to […] FXR activity was quantified and the respective EC50 value was determined. Fex=fexaramine.

EC50 [1]: ≤ 1000 nM
Cmpd/Fex (ratio of the EC50 for the test compound relative to the EC50 of the Fexaramine control) [2]: +++ (‘+++’ means Cmpd/Fex <10)
SMILES: COC(=O)/C=C/c1cccc(N(CC2CCC(c3ccc(Cl)cc3)CC2)C(=O)C2CCCCC2)c1 (centres unmarked) [Compound 7, (E)-Methyl 3-(3-(N-((4-(4-chlorophenyl)cyclohexyl)methyl)cyclohexanecarboxamido)phenyl)acrylate]
